This note sets out measurements from PubChem BioAssay (NCI).

SMILES strings stand for the structures. “And” between values parts separate entries of the source, which are not always exact repeats. Equal values may be shown once.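 Compound exposure: 48 hours, 5 concentrations, 96-well plates. GI50 marks 50% less growth. The concentration for full growth arrest is given as TGI.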

Test systems include ACHN renal; BT-549 breast; CAKI-1 renal; HT29 colon; KM12 colon; M14 melanoma; MCF7 breast; MDA-N; NCI-H226 lung; NCI-H522 lung; OVCAR-8 ovarian; PC-3 prostate; SF-268 CNS; SNB-75 CNS.
What all share (assay): NCI-60 cell line screen, 48 h

Consider `C=C(C)C12CC(COC(=O)c3ccccc3)C34OC5(OC1C3C1OC1(CO)C(O)C1(O)C(OC(=O)c3ccccc3)C(C)C(C(C)CCCCCCC5O)C14)O2` (stereo not drawn), for which the TGI in the test on ACHN renal was over 100 µM; in the test on BT-549 breast it was over 100 µM; with CAKI-1 renal, over 100 µM; in the test with HT29 colon, 54.7 µM; with KM12 colon, over 100 µM; with M14 melanoma it was over 100 µM. In addition, the TGI with MCF7 breast, with MDA-N, in the test on NCI-H226 lung, with NCI-H522 lung, with OVCAR-8 ovarian and with PC-3 prostate was over 100 µM each time. The TGI in the test with SF-268 CNS and in the test with SNB-75 CNS was over 100 µM each time.
Take `CC(=O)OCC1OC(OC(C)(C)CC/C=C(\C)[C@@H]2C/C=C(\C)CC/C=C(\C)CC2)C(O)C(O)C1OC(C)=O` (stereo partly drawn): the GI50 with ACHN renal is > 65.1 µM and 13.8 µM; in the test with CAKI-1 renal, 58.6 µM and 18.7 µM; in the test on M14 melanoma, 60 µM and 19.7 µM; with MCF7 breast it was 52 µM and 23.9 µM; with PC-3 prostate, 35.8 µM and 13.1 µM. The TGI was > 100 µM and 26.7 µM in the test on ACHN renal; 88.6 µM and 34.8 µM in the test on BT-549 breast; > 100 µM and 35.3 µM in the test with CAKI-1 renal; > 55.5 µM and 28.1 µM in the test with HT29 colon; > 59.7 µM and 36.8 µM with KM12 colon; > 100 µM and 47.8 µM with M14 melanoma. The TGI in the test on MCF7 breast is > 100 µM and 64.8 µM; in the test on MDA-N it was > 61.4 µM and 41.5 µM; in the test on NCI-H226 lung it was > 100 µM and 16.2 µM; with NCI-H522 lung it was 28.8 µM and 37.4 µM; in the test with OVCAR-8 ovarian, 82.3 µM and 43.5 µM; in the test with PC-3 prostate, > 94.8 µM and 25.8 µM. Also, the TGI in the test on SF-268 CNS is 98.7 µM and 38.3 µM; in the test with SNB-75 CNS, > 100 µM and 31.8 µM.
Take `Cc1ccc([C@@H]2[C@@H](C(=O)c3ccccn3)[C@H](c3ccc(C)cc3)C[C@](O)(c3ccccn3)[C@H]2C(=O)c2ccccn2)cc1`: the TGI was over 40.4 µM in the test on ACHN renal; over 100 µM in the test on BT-549 breast; over 100 µM in the test on CAKI-1 renal; over 100 µM with HT29 colon; over 100 µM in the test with KM12 colon; 3.01 µM in the test with M14 melanoma. The TGI is over 100 µM in the test with MCF7 breast; over 28.5 µM with MDA-N; over 100 µM in the test on NCI-H226 lung; over 100 µM in the test on NCI-H522 lung; over 100 µM in the test with OVCAR-8 ovarian; over 100 µM in the test with PC-3 prostate. Further, the TGI with SF-268 CNS and in the test on SNB-75 CNS was over 100 µM throughout.
As for `CC(C)c1ccc2[nH]c(O)c(-c3[nH]c4ccccc4c3N=O)c2c1`, the TGI in the test on ACHN renal was 14.6 µM; in the test on BT-549 breast, 19.4 µM; with CAKI-1 renal, 22.9 µM; in the test with HT29 colon, 15 µM; in the test with KM12 colon it was 15.6 µM; in the test on M14 melanoma, 23.6 µM. The TGI in the test on MCF7 breast is 5.71 µM; with MDA-N, 19.2 µM; in the test on NCI-H226 lung, 29.4 µM; in the test on NCI-H522 lung, 14.6 µM; in the test with OVCAR-8 ovarian, 14.6 µM; in the test with PC-3 prostate, 19.4 µM. Also, the TGI with SF-268 CNS is 20.4 µM; in the test on SNB-75 CNS, 26.3 µM.
For `COCOC1/C=C/CCCCC2=C(C)C=C(C1)O2` (stereo not drawn), the TGI with ACHN renal, in the test with BT-549 breast, in the test with CAKI-1 renal, with HT29 colon, in the test with KM12 colon and in the test on M14 melanoma was over 100 µM throughout. The TGI in the test with MCF7 breast, in the test with MDA-N, in the test with NCI-H226 lung, in the test with NCI-H522 lung, with OVCAR-8 ovarian and with PC-3 prostate was over 100 µM in each case. Also, the TGI with SF-268 CNS and in the test on SNB-75 CNS was over 100 µM each time.
As for `COc1cccc2c(N)c3cccc(C(=O)NCCN(C)C)c3nc12`, the TGI with ACHN renal was 2.03 µM; with BT-549 breast, 4.95 µM; with CAKI-1 renal it was 2.21 µM; with HT29 colon, 0.633 µM; in the test on KM12 colon it was 3.59 µM; with M14 melanoma, 1.71 µM. The TGI in the test on MCF7 breast turned out to be 1.57 µM; in the test with MDA-N it was 0.982 µM; in the test on NCI-H226 lung it was 0.386 µM; in the test with NCI-H522 lung, 0.149 µM; in the test on OVCAR-8 ovarian, 0.594 µM; in the test on PC-3 prostate, 1.7 µM. In addition, the figures for the TGI in the test with SF-268 CNS and in the test with SNB-75 CNS were 0.51 µM and 0.362 µM, respectively.
Take `O=C(O)c1c2c(cc3c1CC1(Cc4ccccc4C1)C3)CCC2`: the TGI in the test with ACHN renal, with BT-549 breast, in the test with CAKI-1 renal, in the test on HT29 colon, in the test on KM12 colon and with MCF7 breast was over 100 µM each time. Moreover, the TGI in the test with MDA-N, in the test with NCI-H226 lung, in the test with NCI-H522 lung, in the test with OVCAR-8 ovarian, in the test on PC-3 prostate and in the test on SF-268 CNS was over 100 µM throughout. For the same molecule, in the test on SNB-75 CNS, the TGI is over 100 µM.
`S=C(N/N=C\C=N/NC(=S)N1CCCCC1)N1CCCCC1`: the TGI with BT-549 breast, with CAKI-1 renal, in the test with HT29 colon, in the test with KM12 colon, in the test on M14 melanoma and in the test with MCF7 breast was over 100 µM in each case. The TGI in the test with MDA-N is over 100 µM; in the test with NCI-H226 lung it was over 68.1 µM; in the test on NCI-H522 lung, over 100 µM; in the test with OVCAR-8 ovarian, over 100 µM; in the test on PC-3 prostate, over 100 µM; in the test on SF-268 CNS, over 100 µM. In addition, the TGI with SNB-75 CNS is over 100 µM.
For `O=c1nc(N2CCN(c3ccccc3)CC2)ccn1C1OC(CO)C(O)C1O` (stereo not drawn), the TGI with ACHN renal, in the test on BT-549 breast, with CAKI-1 renal, with HT29 colon, in the test with KM12 colon and in the test on M14 melanoma was over 100 µM each time. The TGI in the test with MCF7 breast, in the test with MDA-N, in the test on NCI-H226 lung, in the test with NCI-H522 lung, in the test on OVCAR-8 ovarian and in the test with PC-3 prostate was over 100 µM each time. In addition, the TGI with SF-268 CNS was over 100 µM.
